From US9999616B2 (ZENITH EPIGENETICS LTD., priority 2013, dated 2018)

Molecular target: Brd4 bromodomain 1 (BRD4(1)) (Homo sapiens, UniProt O60885)
Test: Inhibition of tetra-acetylated histone H4 binding to Brd4 bromodomain 1, measured by FRET (HTRF)
Set-up: made in house; host or cells: E. coli BL21(DE3)
Details: 2 h at room temperature
Method: Proteins were cloned and overexpressed with a N-terminal 6×His tag, then purified by nickel affinity followed by size exclusion chromatography. Briefly, E. coli BL21(DE3) cells were transformed with a recombinant expression vector encoding N-terminally Nickel affinity tagged bromodomains from Brd2, Brd3, Brd4. Cell cultures were incubated at 37° C. with shaking to the appropriate density and induced overnight with IPTG. The supernatant of lysed cells was loaded onto Ni-IDA column for purification. Eluted protein was pooled, concentrated and further purified by size exclusion chromatography. Fractions representing monomeric protein were pooled, concentrated, aliquoted, and frozen at −80° C. for use in subsequent experiments.
Binding of tetra-acetylated histone H4 and BET bromodomains was confirmed by a Homogenous Time Resolved Fluorescence Resonance Energy Transfer (HTRF®) method. N-terminally His-tagged bromodomains (200 nM) and biotinylated tetra-acetylated histone H4 peptide (25-50 nM, Millipore) were incubated in the presence of Europium Cryptate-labeled streptavidin (Cisbio Cat. #610SAKLB) and XL665-labeled monoclonal anti-His antibody (Cisbio Cat. #61HISXLB) in a white 96 well microtiter plate (Greiner). For inhibition assays, serially diluted test compound was added to these reactions in a 0.2% final concentration of DMSO. Duplicate wells were used for each concentration tested. Final buffer concentrations were 30 mM HEPES pH 7.4, 30 mM NaCl, 0.3 mM CHAPS, 20 mM phosphate pH 7.0, 320 mM KF, 0.08% BSA. After a 2 h incubation at room temperature, fluorescence was measured at 665 and 620 nm with a SynergyH4 plate reader (Biotek). The binding inhibitory activity was shown by a decrease in 665 nm relative to 620 nm fluorescence. IC50 values were determined from a dose response curve.

IC50 [µM]	SMILES
3 to 30	Cc1noc(C)c1-c1nc(-c2c(C)noc2C)c2ccccc2n1 [Example Compound 3, 4,4′-(quinazoline-2,4-diyl)bis (3,5-dimethyl isoxazole)]
3 to 30	Cc1noc(C)c1-c1cn2ccnc2c(-c2c(C)noc2C)n1 [Example Compound 10, 4,4′-(imidazo [1,2-a]pyrazine-6,8-diyl)bis(3,5-dimethylisoxazole)]
3 to 30	Cc1noc(C)c1-c1cc(-c2c(C)nn(C)c2C)cc2[nH]cnc12 [Example Compound 14, 3,5-dimethyl-4-(6-(1,3,5-trimethyl-1H-pyrazol-4-yl)-1H-benzo[d]imidazol-4-yl)isoxazole]
3 to 30	Cc1noc(C)c1-c1cc(-c2c(C)noc2C)c2ncnn2c1 [Example Compound 17, 4,4′-([1,2,4]triazolo [1,5-a]pyridine-6,8-diyl)bis (3,5-dimethyl-isoxazole)]
≤ 0.3	Cc1noc(C)c1-c1cc(-c2c(C)noc2C)c2nc(NCc3ccccc3)[nH]c2c1 [Example Compound 31, N-benzyl-4,6-bis(3,5-dimethylisoxazol-4-yl)-1H-benzo[d] imidazol-2-amine]
0.3 to 3	Cc1noc(C)c1-c1cc(Nc2cnccn2)c2nc[nH]c2c1 [Example Compound 62, 6-(3,5 dimethyl-isoxazol-4-yl)-N-(pyrazin-2-yl)-1H-benzo[d] imidazol-4-amine]
0.3 to 3	Cc1nc2c(Nc3ncccc3C)cc(-c3c(C)noc3C)cc2[nH]1 [Example Compound 63, 6-(3,5-dimethyl-isoxazol-4-yl)-2-methyl-N-(3-methylpyridin-2-yl)-1H-benzo[d] imidazol-4-amine]
≤ 0.3	Cc1noc(C)c1-c1cc(-c2c(C)noc2C)c2nc(NCc3cccnc3)[nH]c2c1 [Example Compound 65, 4,6-bis(3,5-dimethyl-isoxazol-4-yl)-N-(pyridin-3-ylmethyl)-1H-benzo[d] imidazol-2-amine]
3 to 30	Cc1nc2c(-c3ccccc3C#N)cc(-c3c(C)noc3C)cc2[nH]1 [Example Compound 71, 2-(6-(3,5-dimethyl-isoxazol-4-yl)-2-methyl-1H-benzo[d]imidazol-4-yl)benzonitrile]
0.3 to 3	Cc1nc2c(-c3cc(C(=O)O)ccc3C)cc(-c3c(C)noc3C)cc2[nH]1 [Example Compound 75, 3-(6-(3,5-dimethyl-isoxazol-4-yl)-2-methyl-1H-benzo[d]imidazol-4-yl)-4-methyl benzoic acid]
0.3 to 3	Cc1nc2c(-c3ccccc3C(F)(F)F)cc(-c3c(C)noc3C)cc2[nH]1 [Example Compound 78, 3,5-dimethyl-4-(2-methyl-4-(2-(trifluoromethyl)phenyl)-1H-benzo[d]imidazol-6-yl)isoxazole]
0.3 to 3	Cc1nc2c(-c3cccnc3N)cc(-c3c(C)noc3C)cc2[nH]1 [Example Compound 82, 3-(6-(3,5-dimethyl-isoxazol-4-yl)-2-methyl-1H-benzo[d]imidazol-4-yl)pyridin-2-amine]
0.3 to 3	Cc1nc2c(-c3cccc(F)c3C#N)cc(-c3c(C)noc3C)cc2[nH]1 [Example Compound 83, 2-(6-(3,5-dimethyl-isoxazol-4-yl)-2-methyl-1H-benzo[d]imidazol-4-yl)-6-fluoro-benzonitrile]
0.3 to 3	Cc1ccc(-c2cc(-c3c(C)noc3C)cc3[nH]c(C)nc23)nn1 [Example Compound 86, 3,5-dimethyl-4-(2-methyl-4-(6-methyl-pyridazin-3-yl)-1H-benzo[d]imidazol-6-yl)isoxazole]
0.3 to 3	Cc1nc2c(-c3ccc(Cl)cc3C)cc(-c3c(C)noc3C)cc2[nH]1 [Example Compound 90, 4-(4-(4-chloro-2-methyl-phenyl)-2-methyl-1H-benzo[d]imidazol-6-yl)-3,5-dimethyl isoxazole]
≤ 0.3	Cc1nc2c(-c3cccc(OC(F)(F)F)c3)cc(-c3c(C)noc3C)cc2[nH]1 [Example Compound 96, 3,5-dimethyl-4-(2-methyl-4-(3-(trifluoro-methoxy)phenyl)-1H-benzo[d]imidazol-6-yl)isoxazole]
